Legend:
PGC-1α = PGC-1α protein expression in BV2 microglia cells (Western blot); type: cell-based, murine; conditions: 24 hours
Description: Frozen BV2 murine microglia cells were thawed and propagated in complete media (RPMI, 10% heat-inactivated FBS, 1% L-glutamine, 1% Pen-Strep) until the growth rate reached log phase. For protein expression analysis, DMSO (1:1000 final dilution) or TQS-168 in DMSO (1:1000 final dilution) at 20 μM was added to cell cultures. After 24 hours stimulation, supernatant was discarded and cell lysis buffer (Cell Signal) was added to adherent cells to extract protein. Total protein was quantified and normalized across all samples by BCA assays. Two replicates of untreated cultures and three replicates of TQS-168-treated cultures were investigated, with each replicate containing lysates from 5,000,000 BV2 myeloid cells. PGC1α expression was detected by Western Blot using an anti-PGC-1α antibody (SC13067, Santa Cruz Biotechnology, 1:500 dilution). Anti-β-actin antibody (SC8432, Santa Cruz Biotechnology, 1:2000 dilution) was used to quantify beta-actin, a housekeeping gene whose expression level is not know to be affected by TQS-168. […] Total protein was quantified and normalized across all samples by BCA assays. PGC-1α was subsequently detected by Western Blot using an anti-PGC-1α antibody (SC13067, Santa Cruz Biotechnology, 1:500 dilution). β-actin was detected with an anti-β-actin antibody (SC8432, Santa Cruz Biotechnology, 1:2000 dilution). […]

TNFα = TNFα secretion from LPS-stimulated BV2 cells (CBA assay); type: cell-based, murine; conditions: 100 ng/ml LPS, 24 hours; for TNFα production by LPS-stimulated BV-2 myeloid cells: compared to control
Description: LPS was used to induce cytokine secretion from BV-2 cells. Cells were incubated with TQS-168 at various concentrations to assess whether TQS-168 could suppress the LPS-promoted release of various cytokines from in vitro cell cultures. Cytokine secretion was measured by cytometric bead array (CBA) fluorescence-activated cell sorting (FACS).
Briefly, a vial of BV2 frozen stock (1 million cells per ml in complete medium) was thawed into 10 mL of complete medium per vial for a total of 4 vials. The vials were then centrifuged at 1800 rpm for 3 minutes to wash away freezing media. The four vials were then pooled into 25 mL of complete medium. TQS-168 was prepared in DMSO.
Cells were incubated for 24 hours in the presence of medium (negative control), LPS (positive control), DMSO+LPS (positive control, controlling additionally for presence of DMSO in the TQS-168 stock solution), or LPS+TQS-168 at final concentrations of 1 μM, 5 μM, 10 μM, and 20 μM.
After the well plates were incubated overnight for 24 hours, they were centrifuged at 1800 rpm for 5 minutes. Next, 150 μl from each well was transferred to a new set of plates, of which 50 μl was used for CBA. The plates were then centrifuged with the cells, followed by addition of 100 μl of DAPI (50 ml of PBS+10 μl of DAPI stock at 1:5000 dilution). The plates were then incubated in the dark for 5 minutes, followed by addition of 100 μl of PBS and centrifuged at 1800 rpm for 5 minutes. Finally, the plates were resuspended in 200 μl of PBS and tested.
Multiplexed cytometric bead array (CBA) assay was performed according to standard techniques to detect presence in the cell culture medium of secreted murine TNFα, IL-6, IFNγ, IL-12, monocyte chemoattractant protein 1 (MCP-1), and IL-10.
A total of 4-11 replicates of BV2 cultures in different conditions were investigated. Frozen BV2 microglia cell line was thawed and propagated in complete media (RPMI, 10% heat inactivated FBS, 1% L-glutamine, 1% Pen-Strep) until growth rate reached log phase.
Cells were stimulated with 100 ng/ml of LPS for 24 hours. […]

[1] = system: 12 human primary cell-based systems; experiment: Eurofins BioMAP Diversity PLUS panel
From the text: TQS-168 was characterized in the Eurofins BioMAP Diversity PLUS panel of 12 human primary cell-based systems (FIG. 12). These systems are designed to model complex human tissue and disease biology of the vasculature, skin (fibrosis), pulmonary and immune systems and provide test agent characterization in an unbiased way across a broad set of systems modeling various human disease states. Quantitative measurements of biomarker activities across this broad panel, along with comparative analysis of the biological activities of known bioactive agents in the BioMAP reference database were used to predict the safety, efficacy and function of TQS-168. A BioMAP profile in the Diversity PLUS Panel was performed for TQS-168 at concentrations of 20 μM, 6.7 μM, 2.2 μM, and 740 nM. The Y-axis represents a log-transformed ratio of the biomarker readouts for the test agent-treated sample (n=1) over vehicle controls (average of ≥6 vehicle controls from the same plate). The grey region around the Y-axis represents the 95% significance envelope that was generated from the upper and lower bound values of historical vehicle controls. Biomarker activities were annotated when two or more consecutive concentrations change in the same direction relative to vehicle controls, were outside of the significance envelope, and have at least one concentration with an effect size >20% (|log10 ratio|>0.1). Biomarker key activities were described as modulated if these activities increase in some systems, but decreased in others.

[2] = system: 12 human primary cell-based systems; experiment: Eurofins BioMAP Diversity PLUS panel; remark: listed apart in the source
[3] = system: neurodegenerative diseases; conditions: murine models of Parkinson's disease, Alzheimer's disease, ALS; cited from earlier work
[4] = profile at 20 μM, 6.7 μM, 2.2 μM, 740 nM
[5] = BioMAP report, profile at 6.7 μM, 2.2 μM, 740 nM
[6] = profile at 6.7 μM, 2.2 μM, 740 nM

SMILES: CC(C)(C)c1ccc(-c2nc3ccccc3[nH]2)cc1 [TQS-168, 2-(4-tert-butylphenyl)-1H-benzimidazole]
- PGC-1α protein expression (PGC-1α; BV2 cells, concentrations ranging from 0.7 μM to 20 μM): induces
- PGC-1α protein expression (PGC-1α; BV2 microglia cells, 20 μM, Western blot): induces
- TNFα production by LPS-stimulated BV-2 myeloid cells (TNFα; 5 μM): suppress
- TNFα production by LPS-stimulated BV-2 myeloid cells (TNFα; 20 μM): suppress
- LPS-induced secretion of TNFα (TNFα; BV2 cells, 1 μM-20 μM): reduce
- T-cell proliferation, IgG, TNFα, and IL-8 ([1]; 6.7 μM): inhibit
- decrease in sIgG and sTNFα in B and T cells as compared to metformin hydrochloride at 5000 μM ([1]; 6.7 μM): greater decrease
- decrease in sIgG, sIL-17A, sIL-17F, sIL-2, sTNFα, sIL-6 from B and T cells ([1]; 20 μM, highest concentration of the profile): greatest decrease
- inflammatory markers Eotaxin-3, P-selectin, IL-8, PGE2, IP-10 [1, 4]: decreased
- proliferation of endothelial, B cells, T cells, coronary artery SMC & fibroblasts [1, 4]: anti-proliferative
- tissue remodeling markers uPAR, MMP1, tPA, alpha-SMA, Collagen III [1, 4]: modulated
- decrease in sIgG, sIL-17F, sTNFα from B and T cells ([2]; 6.7 μM): greatest decrease
- cytotoxicity to endothelial cells ([2]; 20 μM): cytotoxic
- highest nontoxic concentration tested ([2]; BioMAP Diversity PLUS panel): 6.7 µM
- tissue remodeling activity MMP-1 [2, 5]: increased
- tissue remodeling activity αSMA [2, 5]: decreased
- activity at non-cytotoxic concentrations [2, 6]: active
- immune markers sIgG, sIL-17-F, sTNFα (from B and T cells, not monocytes) [2, 6]: decreased
- inflammatory markers sPGE2 (from monocytes), IL-8 [2, 6]: decreased
- proliferation of endothelial cells, T cells, B cells & fibroblasts [2, 6]: anti-proliferative
- sIL-6 [2, 6]: increased
- tissue remodeling markers MMP1, alpha-SMA [2, 6]: modulated
- VCAM-1 [2, 4]: increased
- immune markers sIgG, sIL-17A, sIL-17F, sIL-2, sTNFα, sIL-6 (from B and T cells, not monocytes) [2, 4]: decreased
- disease severity [3]: reduce
- myeloid-mediated inflammation [3]: suppress

— patent US20240316008A1, “TREATMENT OF SYSTEMIC IMMUNE ACTIVATION SYNDROMES” (TRANQUIS THERAPEUTICS, INC., priority 2020, published 2024)
